Patent publication US10351575B2, “Bicyclic urea, thiourea, guanidine and cyanoguanidine compounds useful for the treatment of pain” (Array BioPharma Inc., priority 2012, dated 2019)

molecular target: His-tagged recombinant human TrkA (Homo sapiens (Human), UniProt P04629); assay: TrkA LanthaScreen Eu Kinase Binding Assay; conditions: averaged IC50; TR-FRET binding, 60 min, 22° C.; read-out: TrkA Enzyme IC50
Procedure, shortened: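 Three-fold compound dilutions (2% DMSO final) were incubated 60 min at 22° C. with 5 nM His-TrkA cytoplasmic domain, tracer 236 (4 nM), biotinylated anti-His (2 nM) and europium streptavidin (2 nM) in MOPS pH 7.5 buffer. Emission ratio 665/615 gave percent of control; four-parameter fit yielded IC50.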

Sequence of His-tagged recombinant human TrkA (P04629 440-796): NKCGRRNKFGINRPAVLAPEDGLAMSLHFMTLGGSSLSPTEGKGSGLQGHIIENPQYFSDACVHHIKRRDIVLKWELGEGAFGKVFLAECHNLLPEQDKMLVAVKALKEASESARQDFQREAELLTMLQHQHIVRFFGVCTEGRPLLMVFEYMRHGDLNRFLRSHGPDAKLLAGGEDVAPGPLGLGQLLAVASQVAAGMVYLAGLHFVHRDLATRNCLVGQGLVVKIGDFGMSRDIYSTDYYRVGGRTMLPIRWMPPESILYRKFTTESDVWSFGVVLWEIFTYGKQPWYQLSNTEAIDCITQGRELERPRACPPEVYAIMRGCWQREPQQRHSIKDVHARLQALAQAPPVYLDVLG

IC50 [µM] | Compound
< 0.1 | Cc1c(-c2ccc(=O)n(C)c2)nn(-c2ccccc2)c1NC(=O)N[C@@H]1c2cc(F)ccc2C(C)(C)C[C@H]1O [Example 93, 1-((1,2-trans)-7-fluoro-2-hydroxy-4,4-dimethyl-1,2,3,4-tetrahydronaphthalen-1-yl)-3-(4-methyl-3-(1-methyl-6-oxo-1,6-dihydropyridin-3-yl)-1-phenyl-1H-pyrazol-5-yl)urea]
< 0.1 | COCc1ccc2c(c1)C(NC(=O)Nc1c(C)c(=O)[nH]n1-c1ccccc1)CN(CC(F)(F)F)C2C (stereo not shown) [Example 96, 1-(6-(methoxymethyl)-1-methyl-2-(2,2,2-trifluoroethyl)-1,2,3,4-tetrahydroisoquinolin-4-yl)-3-(4-methyl-5-oxo-2-phenyl-2,5-dihydro-1H-pyrazol-3-yl)urea]
< 0.1 | Cc1nn(-c2ccccc2)c(NC(=O)N[C@@H]2c3cc(CO)ccc3C(C)(C)C[C@H]2O)c1C [Example 100]
< 0.1 | Cc1c(-c2cnn(C)c2)nn(-c2ccccc2)c1NC(=O)N[C@H]1CCCc2cc(F)ccc21 [Example 103, (S)-1-(1′,4-dimethyl-1-phenyl-1H,1′H-[3,4′-bipyrazol]-5-yl)-3-(6-fluoro-1,2,3,4-tetrahydronaphthalen-1-yl)urea]
< 0.1 | COCc1ccc2c(c1)C(NC(=O)Nc1c(C)c(-c3cnn(C)c3)nn1-c1ccccc1)CN(CC(F)(F)F)C2C (stereo not shown) [Example 109, 1-(1′,4-dimethyl-1-phenyl-1H,1′H-[3,4′-bipyrazol]-5-yl)-3-(6-(methoxymethyl)-1-methyl-2-(2,2,2-trifluoroethyl)-1,2,3,4-tetrahydroisoquinolin-4-yl)urea]
< 0.1 | COCc1ccc2c(c1)C(NC(=O)Nc1c(C)c(C(N)=O)nn1-c1ccccc1)CN(CC(F)(F)F)C2C (stereo not shown) [Example 110, 5-(3-(6-(methoxymethyl)-1-methyl-2-(2,2,2-trifluoroethyl)-1,2,3,4-tetrahydroisoquinolin-4-yl)ureido)-4-methyl-1-phenyl-1H-pyrazole-3-carboxamide]
< 0.1 | COCc1ccc2c(c1)C(NC(=O)Nc1c(C)c(-c3cn(C)cn3)nn1-c1ccccc1)CN(CC(F)(F)F)C2C (stereo not shown) [Example 111, 1-(6-(methoxymethyl)-1-methyl-2-(2,2,2-trifluoroethyl)-1,2,3,4-tetrahydroisoquinolin-4-yl)-3-(4-methyl-3-(1-methyl-1H-imidazol-4-yl)-1-phenyl-1H-pyrazol-5-yl)urea]
< 0.1 | Cc1c(-c2cnn(C)c2)nn(-c2ccccc2)c1NC(=O)NC1CCSc2ccc(Br)cc21 (stereo not shown) [Example 112, 1-(6-bromothiochroman-4-yl)-3-(1′,4-dimethyl-1-phenyl-1H,1′H-[3,4′-bipyrazol]-5-yl)urea]
0.1 to 1 | Cc1c(-c2cnn(C)c2)nn(-c2ccccc2)c1NC(=O)NC1CCS(=O)(=O)c2ccc(Br)cc21 (stereo not shown) [Example 113, 1-(6-bromo-1,1-dioxidothiochroman-4-yl)-3-(1′,4-dimethyl-1-phenyl-1H,1′H-[3,4′-bipyrazol]-5-yl)urea]
< 0.1 | Cc1c(-c2cnn(C)c2)nn(-c2ccccc2)c1NC(=O)NC1CSCc2ccc(Br)cc21 (stereo not shown) [Example 114, 1-(6-bromoisothiochroman-4-yl)-3-(1′,4-dimethyl-1-phenyl-1H,1′H-[3,4′-bipyrazol]-5-yl)urea]
< 0.1 | Cc1c(-c2cnn(C)c2)nn(-c2ccccc2)c1NC(=O)NC1CS(=O)(=O)Cc2ccc(Br)cc21 (stereo not shown) [Example 115, 1-(6-bromo-2,2-dioxidoisothiochroman-4-yl)-3-(1′,4-dimethyl-1-phenyl-1H,1′H-[3,4′-bipyrazol]-5-yl)urea]
< 0.1 | Cc1c(-c2cnn(C)c2)nn(-c2ccccc2)c1NC(=O)NC1CN(CC(F)(F)F)C(=O)c2ccccc21 (stereo not shown) [Example 116, 1-(1′,4-dimethyl-1-phenyl-1H,1′H-[3,4′-bipyrazol]-5-yl)-3-(1-oxo-2-(2,2,2-trifluoroethyl)-1,2,3,4-tetrahydroisoquinolin-4-yl)urea]
< 0.1 | Cc1ncc(-c2nn(-c3ccccc3)c(NC(=O)N[C@@H]3c4ccccc4C(C)(C)C[C@H]3O)c2C)cn1 [Example 117, 1-((1,2-trans)-2-hydroxy-4,4-dimethyl-1,2,3,4-tetrahydronaphthalen-1-yl)-3-(4-methyl-3-(2-methylpyrimidin-5-yl)-1-phenyl-1H-pyrazol-5-yl)urea]
< 0.1 | CNC(=O)c1nn(-c2ccccc2)c(NC(=O)NC2CN(CC(F)(F)F)C(C)c3ccc(COC)cc32)c1C (stereo not shown) [Example 129, 5-(3-(6-(methoxymethyl)-1-methyl-2-(2,2,2-trifluoroethyl)-1,2,3,4-tetrahydroisoquinolin-4-yl)ureido)-N,4-dimethyl-1-phenyl-1H-pyrazole-3-carboxamide]

Continued, compound first:

Compound | IC50 [µM]
CNC(=O)c1nn(-c2ccccc2)c(NC(=O)N[C@@H]2c3cc(F)c(F)cc3C(C)(C)C[C@H]2O)c1C [Example 79, 5-(3-((1,2-trans)-6,7-difluoro-2-hydroxy-4,4-dimethyl-1,2,3,4-tetrahydronaphthalen-1-yl)ureido)-N,4-dimethyl-1-phenyl-1H-pyrazole-3-carboxamide] | < 0.1
Cc1c(-c2cnn(C)c2)nn(-c2ccccc2)c1NC(=O)N[C@@H]1c2cc(F)c(F)cc2C(C)(C)C[C@H]1O [Example 80, 1-((1,2-trans)-6,7-difluoro-2-hydroxy-4,4-dimethyl-1,2,3,4-tetrahydronaphthalen-1-yl)-3-(1′,4-dimethyl-1-phenyl-1H,1′H-[3,4′-bipyrazol]-5-yl)urea] | < 0.1
Cc1c(OCC2CCN(C)CC2)nn(-c2ccccc2)c1NC(=O)N[C@@H]1c2cc(F)c(F)cc2C(C)(C)C[C@H]1O [Example 81, 1-((1,2-trans)-6,7-difluoro-2-hydroxy-4,4-dimethyl-1,2,3,4-tetrahydronaphthalen-1-yl)-3-(4-methyl-3-((1-methylpiperidin-4-yl)methoxy)-1-phenyl-1H-pyrazol-5-yl)urea] | < 0.1
COc1nn(-c2ccccc2)c(NC(=O)N[C@@H]2c3cc(F)c(F)cc3C(C)(C)C[C@H]2O)c1C [Example 82, 1-((1,2-trans)-6,7-difluoro-2-hydroxy-4,4-dimethyl-1,2,3,4-tetrahydronaphthalen-1-yl)-3-(3-methoxy-4-methyl-1-phenyl-1H-pyrazol-5-yl)urea] | < 0.1
Cc1c(-c2ccc(=O)n(C)c2)nn(-c2ccccc2)c1NC(=O)N[C@@H]1c2cc(F)c(F)cc2C(C)(C)C[C@H]1O [Example 83, 1-((1,2-trans)-6,7-difluoro-2-hydroxy-4,4-dimethyl-1,2,3,4-tetrahydronaphthalen-1-yl)-3-(4-methyl-3-(1-methyl-6-oxo-1,6-dihydropyridin-3-yl)-1-phenyl-1H-pyrazol-5-yl)urea] | < 0.1
Cc1ncc(-c2nn(-c3ccccc3)c(NC(=O)N[C@@H]3c4cc(F)c(F)cc4C(C)(C)C[C@H]3O)c2C)cn1 [Example 84, 1-((1,2-trans)-6,7-difluoro-2-hydroxy-4,4-dimethyl-1,2,3,4-tetrahydronaphthalen-1-yl)-3-(4-methyl-3-(2-methylpyrimidin-5-yl)-1-phenyl-1H-pyrazol-5-yl)urea] | < 0.1
CNC(=O)c1nn(-c2ccccc2)c(NC(=O)N[C@@H]2c3ccccc3C(C)(C)[C@@H](OC)[C@H]2O)c1C [Example 85, 5-(3-((r-1,t-2,t-3)-2-hydroxy-3-methoxy-4,4-dimethyl-1,2,3,4-tetrahydronaphthalen-1-yl)ureido)-N,4-dimethyl-1-phenyl-1H-pyrazole-3-carboxamide] | < 0.1
CO[C@H]1[C@@H](O)[C@H](NC(=O)Nc2c(C)c(-c3cnn(C)c3)nn2-c2ccccc2)c2ccccc2C1(C)C [Example 86, 1-(1′,4-dimethyl-1-phenyl-1H,1′H-[3,4′-bipyrazol]-5-yl)-3-((r-1,t-2,t-3)-2-hydroxy-3-methoxy-4,4-dimethyl-1,2,3,4-tetrahydronaphthalen-1-yl)urea] | < 0.1
CO[C@H]1[C@@H](O)[C@H](NC(=O)Nc2c(C)c(OCC3CCN(C)CC3)nn2-c2ccccc2)c2ccccc2C1(C)C [Example 87, 1-((r-1,t-2,t-3)-2-hydroxy-3-methoxy-4,4-dimethyl-1,2,3,4-tetrahydronaphthalen-1-yl)-3-(4-methyl-3-((1-methylpiperidin-4-yl)methoxy)-1-phenyl-1H-pyrazol-5-yl)urea] | < 0.1
CNC(=O)c1nn(-c2ccccc2)c(NC(=O)N[C@@H]2c3ccc(F)cc3C(C)(C)C[C@H]2O)c1C [Example 88, 5-(3-((1,2-trans)-6-fluoro-2-hydroxy-4,4-dimethyl-1,2,3,4-tetrahydronaphthalen-1-yl)ureido)-N,4-dimethyl-1-phenyl-1H-pyrazole-3-carboxamide] | < 0.1
Cc1c(-c2cnn(C)c2)nn(-c2ccccc2)c1NC(=O)N[C@@H]1c2ccc(F)cc2C(C)(C)C[C@H]1O [Example 89, 1-(1′,4-dimethyl-1-phenyl-1H,1′H-[3,4′-bipyrazol]-5-yl)-3-((1,2-trans)-6-fluoro-2-hydroxy-4,4-dimethyl-1,2,3,4-tetrahydronaphthalen-1-yl)urea] | < 0.1
Cc1c(-c2ccc(=O)n(C)c2)nn(-c2ccccc2)c1NC(=O)N[C@@H]1c2ccc(F)cc2C(C)(C)C[C@H]1O [Example 90] | < 0.1
CNC(=O)c1nn(-c2ccccc2)c(NC(=O)N[C@@H]2c3cc(F)ccc3C(C)(C)C[C@H]2O)c1C [Example 91, 5-(3-((1,2-trans)-7-fluoro-2-hydroxy-4,4-dimethyl-1,2,3,4-tetrahydronaphthalen-1-yl)ureido)-N,4-dimethyl-1-phenyl-1H-pyrazole-3-carboxamide] | < 0.1
Cc1c(-c2cnn(C)c2)nn(-c2ccccc2)c1NC(=O)N[C@@H]1c2cc(F)ccc2C(C)(C)C[C@H]1O [Example 92, 1-(1′,4-dimethyl-1-phenyl-1H,1′H-[3,4′-bipyrazol]-5-yl)-3-((1,2-trans)-7-fluoro-2-hydroxy-4,4-dimethyl-1,2,3,4-tetrahydronaphthalen-1-yl)urea] | < 0.1
